ChEMBL document CHEMBL5137030 (Eur J Med Chem, 2022)
Calls of active or inactive are those of the source. No cut-off for these calls is given here.

Experiments:
[1] = system: Human alphaherpesvirus 2; experiment: Antiviral activity against HSV-2 333vhsB infected in African green monkey Vero cells assessed as inhibition of viral replication by measuring reduction in virus-induced cytopathic effect at 50 uM incubated for 20 hrs by colorimetric analysis; format: functional, organism-based
[2] = system: Human alphaherpesvirus 2; experiment: Antiviral activity against HSV-2 infected in African green monkey Vero cells assessed as inhibition of viral replication incubated for 1 hr followed by washing with PBS and subsequent treatment with compound for 24 hrs by plaque reduction assay; format: functional, organism-based; details: Human alphaherpesvirus 2, Vero
[3] = Half life in mouse liver microsomes at 2 uM in presence of NADPH by LC/MS/MS analysis; format: ADME, Microsome
[4] = Apparent permeability of the compound across apical to basolateral side in human Caco-2 cells at 10 uM incubated for 2 hrs; format: ADME, cell-based; details: caco-2, 2 h
[5] = system: Human alphaherpesvirus 2; experiment: Antiviral activity against HSV-2 infected in African green monkey Vero cells assessed as inhibition of viral replication by measuring log suppression of virus-induced cytopathic effect at 1 uM incubated for 1 hr followed by washing with PBS and subsequent treatment with compound for 24 hrs by plaque assay; format: functional; details: time 25 hrs
[6] = system: Human alphaherpesvirus 2; experiment: Antiviral activity against HSV-2 infected in African green monkey Vero cells assessed as inhibition of viral replication by measuring log suppression of virus-induced cytopathic effect at 5 uM incubated for 1 hr followed by washing with PBS and subsequent treatment with compound for 24 hrs by plaque assay; format: functional; details: time 25 hrs
[7] = Cytotoxicity against human HepDES19 cells assessed as reduction in cell viability incubated for 72 hrs by MTS assay; format: toxicity, cell-based; details: hepdes19, 72 h
[8] = Half life in human liver microsomes at 2 uM in presence of NADPH by LC/MS/MS analysis; format: ADME, Microsome
[9] = system: Human alphaherpesvirus 1; experiment: Antiviral activity against HSV-1 infected in African green monkey Vero cells assessed as inhibition of viral replication by measuring log suppression of virus-induced cytopathic effect at 1 uM incubated for 1 hr followed by washing with PBS and subsequent treatment with compound for 24 hrs by plaque assay; format: functional; details: time 25 hrs
[10] = system: Human alphaherpesvirus 1; experiment: Antiviral activity against HSV-1 infected in African green monkey Vero cells assessed as inhibition of viral replication by measuring log suppression of virus-induced cytopathic effect at 5 uM incubated for 1 hr followed by washing with PBS and subsequent treatment with compound for 24 hrs by plaque assay; format: functional; details: time 25 hrs
[11] = system: Human alphaherpesvirus 1; experiment: Antiviral activity against HSV-1 infected in African green monkey Vero cells assessed as inhibition of viral replication incubated for 1 hr followed by washing with PBS and subsequent treatment with compound for 24 hrs by plaque reduction assay; format: functional, organism-based; details: Human alphaherpesvirus 1, Vero

SMILES | Activity [1] | EC50 [2] [nM] | t1/2 [3] [min] | Papp [4] | log(activity) [5] | log(activity) [6] | CC50 [7] [nM] | t1/2 [8] [min] | log(activity) [9] | log(activity) [10] | EC50 [11] [nM]
Cc1cc(Cc2ccccc2-c2ccccc2)n(O)c(=O)c1 | Active | 160 | < 5 | 2.03 10^-7 cm/s | 3.17 | 4.49 | 14000 | < 5 |  |  | 
Cc1ccc(-c2cc(CC3CCCCC3)n(O)c(=O)c2)cc1 | Active |  |  |  | 0.02 | 0.34 |  |  |  |  | 
COc1ccc(Cc2cc(C)cc(=O)n2O)cc1 | Active |  |  |  | 1.23 | 4.04 |  |  |  |  | 
Cc1ccccc1-c1cc(CC2CCCCC2)n(O)c(=O)c1 | Active |  |  |  | 0.14 | 5.65 |  |  |  |  | 
Cc1cc(C2CCN(C(=O)C(C)C)CC2)n(O)c(=O)c1 | Active |  |  |  | -0.08 | 0.4 |  |  |  |  | 
O=c1cc(/C=C/c2ccccc2)cc(Cc2ccccc2)n1O | Active |  |  |  | 1.46 | 4.62 |  |  |  |  | 
Cc1cccc(-c2cc(CC3CCCCC3)n(O)c(=O)c2)c1 | Active | 310 |  |  | 3.26 | 3.95 | 16000 |  | 4.22 | 4.59 | 
O=c1cc(/C=C/c2ccccc2)cc(CC2CCCCC2)n1O | Active | 270 |  |  | 4.95 | 4.77 | 20000 |  | 4.33 | 4.42 | 
O=c1cc(Cc2ccccc2)cc(Cc2ccccc2)n1O | Active |  |  |  | 0.29 | 4.7 |  |  |  |  | 
O=c1cc(Cc2ccccc2)cc(CC2CCCCC2)n1O | Active |  |  |  | 2.39 | 4.83 |  |  |  |  | 
O=c1cccc(C2CCCCC2)n1O | Active | 550 |  |  | 1.23 | 5.01 | 22000 |  |  |  | 
Cc1cc(Cc2cccc(Cl)c2)n(O)c(=O)c1 | Active |  |  |  | 1.82 | 4 |  |  |  |  | 
Cc1cc(C2CCOCC2)n(O)c(=O)c1 | Active |  |  |  | -0.23 | 0.09 |  |  |  |  | 
O=c1ccc(Cc2ccccc2)cn1O | Active |  |  |  | 0.1 | -0.03 |  |  |  |  | 
Cc1cc(Cc2cccc(OCc3ccccc3)c2)n(O)c(=O)c1 | Active | 220 | < 5 | 1.37 10^-6 cm/s | 4.04 | 4.4 | 22000 | < 5 |  |  | 
O=c1cccc(Cc2ccccc2)n1O | Active |  |  |  | 0.34 | 2.75 |  |  |  |  | 
O=c1cc(-c2ccccc2)ccn1O | Active |  |  |  | 0.05 | 0.02 |  |  |  |  | 
O=c1ccc(-c2ccccc2)cn1O [1-HYDROXY-5-PHENYLPYRIDIN-2(1H)-ONE] | Active |  |  |  | -0.03 | 0 |  |  |  |  | 
Cc1cc(C2CCCCCC2)n(O)c(=O)c1 | Active | 160 | 8 | 5.74 10^-6 cm/s | 4.15 | 5.09 | 18000 | < 5 | 4.67 | 5.27 | 60

SMILES | Activity [1] | EC50 [2] [nM] | t1/2 [3] [min] | Papp [4] | log(activity) [5] | log(activity) [6] | CC50 [7] [nM] | t1/2 [8] [min] | log(activity) [9] | log(activity) [10] | EC50 [11] [nM]
O=c1cc(Cc2ccccc2)ccn1O | Active |  |  |  | 0.4 | 0.03 |  |  |  |  | 
Cc1cc(Cc2ccc(OCc3ccccc3)cc2)n(O)c(=O)c1 | Active | 130 |  | 9.42 10^-7 cm/s | 4.1 | 4.25 | 19000 |  | 4.74 | 5.18 | 
Cc1cc(C2CCCC2)n(O)c(=O)c1 | Active |  |  |  | 0.37 | 2.38 |  |  |  |  | 
O=c1c2ccccc2cc(-c2ccccc2)n1O | Active |  |  |  | 0.01 | 4.04 |  |  |  |  | 
O=c1c2ccccc2cc(C2CCCCC2)n1O | Active |  |  |  | 1.01 | 4.48 |  |  |  |  | 
Cc1cc(Cc2ccccc2Cl)n(O)c(=O)c1 | Active |  |  |  | 2.46 | 4.3 |  |  |  |  | 
O=c1c2ccccc2cc(Cc2ccccc2)n1O | Active |  |  |  | 0.73 | 4.03 |  |  |  |  | 
O=c1cc(-c2ccccc2)cc(CC2CCCCC2)n1O | Active | 390 | < 5 | 2.75 10^-6 cm/s | 4.84 | 5.29 | 20000 | < 5 |  |  | 
Nc1nc2c(ncn2COCCO)c(=O)[nH]1 [ACYCLOVIR] |  |  |  |  | 1.79 | 2.9 |  |  | 2.42 | 3.36 | 
O=c1c2ccccc2cc(CC2CCCCC2)n1O | Active | 280 |  |  | 2.68 | 4.77 | 49000 |  | 4.16 | 4.32 | 240
Cc1cc(Cc2ccc3ccccc3c2)n(O)c(=O)c1 | Active |  |  |  | 1.34 | 3.63 |  |  |  |  | 
O=c1cc(C2CCCCC2)ccn1O | Active |  |  |  | 0.2 | 0.04 |  |  |  |  | 
O=c1ccc(C2CCCCC2)cn1O | Active |  |  |  | 0.67 | 3.62 |  |  |  |  | 
Cc1cc(C2CCC2)n(O)c(=O)c1 | Active |  |  |  | 0.26 | 1.45 |  |  |  |  | 
Cc1cc2ccccc2c(=O)n1O | Active |  |  |  | 0.01 | 0.28 |  |  |  |  | 
COc1ccccc1Cc1cc(C)cc(=O)n1O | Active |  |  |  | 1.02 | 3.9 |  |  |  |  | 
Cc1cc(Cc2cccc(-c3ccccc3)c2)n(O)c(=O)c1 | Active | 390 | < 5 | 1.09 10^-6 cm/s | 4.22 | 4.2 | 24000 | < 5 |  |  | 
O=c1cc(-c2ccccc2)cc(Cc2ccccc2)n1O | Active | 410 |  |  | 2.72 | 5.29 | 18000 |  |  |  | 
